In patent US10045529B2, “Quat cleaner with glycerin ether ethoxylates” (Ecolab USA Inc., priority 2012, dated 2018):

Tests used:
[1] = Cloud point of solfactants in various solutions; assay type: physicochemical; conditions: 1% in 10% NaCl
Excerpt: Various 2-Ethyl Hexanol Glycerin Ether Ethoxylate solfactants were produced using ethoxylation by a KOH Catalyst.
Further the cloud point data for the solfactants in various solutions is shown. The cloud point temperatures show the temperature above which a surfactant-rich phase separates from an aqueous solution. There is a clear relationship between the cloud point and the average EO content of the glycerin ether ethoxylate; as the ethylene oxide content of the solfactant increases, the cloud point and water solubility increase. As the carbon number on the molecule increases, a greater number of moles of ethylene oxide are required to be added to the molecule to retain the same cloud point.

[2] = Glewwe foam meter foam height test; assay type: physicochemical; conditions: 50 ppm; for OBSERVATIONS (foam stability after pump stopped): after 5 minutes pump stopped; for Foam Height (in) @ 1 MIN / Foam Height (in) @ 5 MIN: city water 17 gpg, 140° F., 6 psi; for Foam Height (in) @ 1 MIN: 1 minute
Excerpt: Foam testing was completed for the ethoxylated glycerine ether solfactants in comparison to commercially-available ethoxylated alcohols using a Glewwe foam meter. A Glewwe foam meter provides a dynamic foam test rather than a static test, which is considered more appropriate for simulation of industrial conditions. The equipment and general procedure for the Glewwe form test is described in U.S. Pat. Nos. 3,899,387 and 5,447,648, which are herein incorporated by reference in its entirety. The foam meter itself consists of a thermostated reservoir and a pump to recirculate the aqueous medium with foaming tendencies. The foam developed by the action of the aqueous stream impinging on the surface in the reservoir causes foam formation.
The foam heights of the tested compositions were determined using the following method. First 3000 mL of city water (e.g. 17 gpg) was filled into the Glewwe cylinder. The pump was turned on, pressure adjusted to 6 psi, and heated water to 140° F. The commercially available surfactant (or the solfactant according to the invention) was added at 50 ppm in the cylinder and the timer was started. Foam height was recorded at 1 minute and 5 minutes. After 5 minutes the pump was stopped and foam stability characteristics were observed. The cylinder was then drained, rinsed, and the methods repeated.

[3] = Gel formation with water; assay type: physicochemical
Excerpt: The low foam profiles and low viscosity of the glycerin ether ethoxylate solfactants as shown in Examples 5 and 6 were further compared to gel curves of conventional ethoxylated alcohols (e.g. Tomadol surfactants). […]

[4] = Tergotometer detergency test on EMPA soiled swatches
Protocol: Laundry detergent compositions using 500 ppm sodium hydroxide (e.g. caustic) and the indicated conventional Surfonic® surfactant or the glycerin ether ethoxylate solfactant according to the invention were evaluated. A tergotometer test procedure was employed to measure detergency of test compositions according to the invention. A tergotometer along with 500 mL pots and water bath were employed. First, unwashed swatches from the lot numbers to be used in the test are read on the Konica Minolta Spectrophotometer model CM-3600d to establish the average initial (before washing) L value. A sampling of each swatch type is used. The desired wash temperature is programmed into the Tergotometer and its water bath is allowed to heat up to that temperature. 500 mL of the desired water type is added to each Tergotometer pot and allowed to equilibrate to the desired temperature.
The following standard, commercially available (EMPA) soiled swatches were used for baseline testing in the Examples, as shown in Table 9.
The test detergent compositions are weighed out and added to the Tergotometer pots. Various detergent compositions as shown in Tables 10-11 were employed under varying water conditions, including 5 grain water (Table 10) and 17 grain water (Table 11).
The detergent systems were agitated for 10 minutes to mix and dissolve in the water sources. The agitation/mixing speed RPM was adjusted to 200. The temperature of the detergent compositions dissolved in water was 60° C., unless indicated otherwise in the Figures/Examples set forth below. The swatches are added quickly to their respective pots in a left to right sequence in order to minimize differences in exposure time to the detergent systems. A wash run is completed for at least 10 minutes. At the end of the run, the swatches are removed from the pots quickly in a left to right sequence using a forceps and are transferred into 500 mL-1 liter of cool water to rinse. After rinsing with cold tap water, excess water from the swatches was removed by squeezing the swatches. The process was repeated with rinsing and squeezing excess water at least 2 more times. The swatches were air dried on a visa napkin or paper towel on the lab bench.
The swatches were then read on the HunterLab Color Quest and calculate % soil removal (i.e. whiteness) from the difference between the initial (before washing) L value and the final L value (after washing). Percent Soil Removal=(L after−L initial)/(96−L initial)*100 is represented as L*.

[5] = Differential Scanning calorimetry (DSC) freeze or melt point; assay type: physicochemical
Protocol: Differential Scanning calorimetry (DSC) was run on the various 2-Ethyl Hexanol Glycerin Ether Ethoxylate solfactants set forth in Table 1. The DSC evaluated additional properties of the exemplary set of novel solfactants, namely the freezing point of the molecules. The DSC utilized can be measured down to minus 80° C. for determining a freeze or melt points of a liquid. […] This is distinct form conventional alcohol ethoxylates (having equivalent degrees of ethoxylation) which have very high melt points. For example, many conventional alcohol ethoxylate surfactants have melt points at room temperature or higher, resulting in the compositions being solids at room temperature. In addition, as one skilled in the art ascertains, the more ethyl oxide you add to a standard alcohol ethoxylate, the higher the melt point. This is distinct from the solfactants according to the invention, including the 2-Ethyl Hexanol Glycerin Ether Ethoxylate solfactants set forth in Table 1. For example, Tomadol 24-9 is a solid at room temperature, whereas the equivalent 2EHGE 9 mole is a liquid at room temperature.

[6] = Glycerin Ether Ethoxylate %/Water % 10%/90%
[7] = 5 gpg water, 50 ppm, 500 ppm sodium hydroxide, 60° C., EMPA 116 (Blood, milk and ink, Cotton)
[8] = 5 gpg, 50 ppm, EMPA 101 (olive oil/carbon black, Cotton)
[9] = 5 gpg, 50 ppm, EMPA 104 (olive oil/carbon black, Cotton blend)
[10] = 5 gpg, 50 ppm, EMPA 106 (mineral oil, Cotton)
[11] = 5 gpg, 50 ppm, EMPA 111 (Pig blood, Cotton)
[12] = 5 gpg, 50 ppm, EMPA 114 (Red wine, Cotton)

| Substance | Cloud Point Data 1% in 10% NaCl [1] [°C] | OBSERVATIONS (foam stability after pump stopped) [2] | Foam Height (in) @ 1 MIN [2] [in] | Foam Height (in) @ 5 MIN [2] [in] | Gel Formation ([3]; 20%/80%) | Gel Formation ([3]; 30%/70%) | Gel Formation ([3]; 40%/60%) | Gel Formation ([3]; 50%/50%) | Gel Formation ([3]; 60%/40%) | Gel Formation ([3]; 70%/30%) | Gel Formation ([3]; 80%/20%) | Gel Formation ([3]; 90%/10%) | Gel Formation [3, 6] | % removal EMPA 116 [4, 7] [%] | % removal EMPA 101 [4, 8] [%] | % removal EMPA 104 [4, 9] [%] | % removal EMPA 106 [4, 10] [%] | % removal EMPA 111 [4, 11] [%] | % removal EMPA 114 [4, 12] [%] | % removal EMPA 101 ([4]; 5 gpg, 100 ppm, EMPA 101) [%] | also measured |
| --- | --- | --- | --- | --- | --- | --- | --- | --- | --- | --- | --- | --- | --- | --- | --- | --- | --- | --- | --- | --- | --- |
| 2-Ethyl Hexanol Glycerin Ether Ethoxylate (7 moles) [2EHGE (7 EO)] | 78 | Unstable - Breaks | 5 | 4.5 | None | None | None | None | None | None | None | None | None | 33 | 38 | 47 | 59.88 | 52 | 1 | 25 | % removal EMPA 104 ([4]; 5 gpg, 100 ppm, EMPA 104): 17%; % removal EMPA 106 ([4]; 5 gpg, 100 ppm, EMPA 106): 46.8%; % removal EMPA 111 ([4]; 5 gpg, 100 ppm, EMPA 111): 49%; % removal EMPA 114 ([4]; 5 gpg, 100 ppm, EMPA 114): −3%; % removal EMPA 116 ([4]; 5 gpg, 100 ppm, EMPA 116): 19%; % removal EMPA 101 ([4]; 17 gpg, 50 ppm, EMPA 101): 20%; % removal EMPA 104 ([4]; 17 gpg, 50 ppm, EMPA 104): 15%; % removal EMPA 106 ([4]; 17 gpg, 50 ppm, EMPA 106): 11%; % removal EMPA 111 ([4]; 17 gpg, 50 ppm, EMPA 111): 32%; % removal EMPA 114 ([4]; 17 gpg, 50 ppm, EMPA 114): 0%; % removal EMPA 116 ([4]; 17 gpg, 50 ppm, EMPA 116): 16%; % removal EMPA 101 ([4]; 17 gpg, 100 ppm, EMPA 101): 20%; % removal EMPA 104 ([4]; 17 gpg, 100 ppm, EMPA 104): 17%; % removal EMPA 106 ([4]; 17 gpg, 100 ppm, EMPA 106): 9%; % removal EMPA 111 ([4]; 17 gpg, 100 ppm, EMPA 111): 35%; % removal EMPA 114 ([4]; 17 gpg, 100 ppm, EMPA 114): 0%; % removal EMPA 116 ([4]; 17 gpg, 100 ppm, EMPA 116): 17% |
| 2-Ethyl Hexanol Glycerin Ether Ethoxylate (9 moles) [2EHGE (9 EO)] | 95 | Unstable - Breaks | 4.5 | 4.5 | None | None | None | None | None | None | None | None | None | 33 | 32 | 38 | 55.18 | 48 | 2 | 29 | % removal EMPA 104 ([4]; 5 gpg, 100 ppm, EMPA 104): 24%; % removal EMPA 106 ([4]; 5 gpg, 100 ppm, EMPA 106): 50.14%; % removal EMPA 111 ([4]; 5 gpg, 100 ppm, EMPA 111): 54%; % removal EMPA 114 ([4]; 5 gpg, 100 ppm, EMPA 114): 0%; % removal EMPA 116 ([4]; 5 gpg, 100 ppm, EMPA 116): 25%; % removal EMPA 101 ([4]; 17 gpg, 50 ppm, EMPA 101): 21%; % removal EMPA 104 ([4]; 17 gpg, 50 ppm, EMPA 104): 19%; % removal EMPA 106 ([4]; 17 gpg, 50 ppm, EMPA 106): 9%; % removal EMPA 111 ([4]; 17 gpg, 50 ppm, EMPA 111): 35%; % removal EMPA 114 ([4]; 17 gpg, 50 ppm, EMPA 114): 1%; % removal EMPA 116 ([4]; 17 gpg, 50 ppm, EMPA 116): 21%; % removal EMPA 101 ([4]; 17 gpg, 100 ppm, EMPA 101): 20%; % removal EMPA 104 ([4]; 17 gpg, 100 ppm, EMPA 104): 16%; % removal EMPA 106 ([4]; 17 gpg, 100 ppm, EMPA 106): 10%; % removal EMPA 111 ([4]; 17 gpg, 100 ppm, EMPA 111): 32%; % removal EMPA 114 ([4]; 17 gpg, 100 ppm, EMPA 114): 1%; % removal EMPA 116 ([4]; 17 gpg, 100 ppm, EMPA 116): 20%; Physical state at room temperature [5]: liquid |
